Common to all, as to format: physicochemical
A short description of data set [1]: Miscibility test with HFC-32. The method, then: (§1) First, 0.2 g of the oil [S1] was charged into a glass tube and then, the whole was cooled by liquid nitrogen. The interior of the glass tube was evacuated and, about 1.5 g of HFC-134a was introduced into the glass tube. The glass tube was sealed and placed in a temperature-controlled water bath. When the temperature was equilibriated, in the manner in which the miscibility of the oil [S1] with the fluoroalkane was visually evaluated, a miscibility limit was measured in the temperature range of from room temperature to 90 °C. A lower miscibility limit at temperatures lower than room temperature was likewise measured by cooling with a methanol cooling medium. The results are shown in Table 3 together with the results of Comparative Example 1.
The miscibility of the oil [S2] obtained in Referential Example 2 with HFC-32 (CH2F2) was evaluated in the same manner as in Example 1.

Data set [2] in a line: Kinetic viscosity (E-type rotational viscometer, Cannon-Fenske viscometer). The source says:
The kinetic viscosity of the lubricant oil for use in the present invention can be determined by measuring the viscosity by means of various viscometers. As the viscometer to be used for determining the kinetic viscosity, there can be mentioned a capillary viscometer, such as a Ubbellohde viscometer, an Ostward viscometer or a Cannon-Fenske viscometer, a rotational viscometer, and a falling ball viscometer. In the present invention, an E-type rotational viscometer (manufactured by Tokyo Keiki, Japan) and a Cannon-Fenske viscometer were used.

Data set [3] in a line: Evaluation of heat resistance (sealed tube test). The settings on record: 175 °C for 10 days with HFC-134a and steel, copper, aluminum pieces. The method, then: A glass tube was charged with 0.6 ml of purified oil [S1], HFC-134a and test pieces of steal copper and aluminum, and the glass tube was then sealed to enclose a refrigerant composition therein. The refrigerant composition was heated at 175 °C for 10 days. After the heating, any change of the hue of the refrigerant composition and any change of the surfaces of the metal pieces were examined.
The heat resistances of various compounds of the present invention were evaluated according to the sealed tube test in the same manner as described above. […]

The nature of data set [4]: Volume resistivity, JIS C2101 (insulating oil test). The settings on record: 20 °C; for volume resistivity: oil as obtained in the Referential Example. The method, then:
Volume resistivity of the oil [S1] obtained in Referential Example 1 was measured according to the method of JIS C2101 (insulating oil test).

Data set [5] in a line: Insulation breakdown voltage, JIS C2101. The note with it: oil purified with activated carbon. Here is the method:
100 g of activated carbon (Calgon® CPG, manufactured by Calgon Far East, Japan) dried in vacuum at 150 °C for 3 hours was dispersed in 400 g of R-113 to obtain a suspension, and 200 g of the oil [S1] obtained in Example 40 was added thereto, followed by agitation at room temperature overnight. The activated carbon was removed by filtration and, then, the R-113 was dis tilled off, followed by simple distillation of the oil, thereby obtaining 140 g of a colorless, transparent oil. The oil obtained according to the present purification method was analyzed by gas chromatography. […] Further, each of the volume resistivities of the oil at 20 °C before and after purification was measured in substantially the same manner as in Example 45. […] The above results are shown in Table 13, together with the results of Comparative Examples 17 through 20.

A short description of data set [6]: Miscibility with mineral oil. The settings on record: weight ratio 50/50.
Data set [7] is described as follows: Miscibility test with HFC-134a (sealed glass tube, visual evaluation). The note with it: for Temperature range for being miscible with HFC-134a lower limit temperature (°C) / Temperature range for being miscible with HFC-134a upper limit temperature (°C): 0.2 g oil, about 1.5 g HFC-134a; for Temperature range for being miscible with HFC-134a upper limit temperature (°C): measured up to 90 °C.

The nature of data set [8]: Miscibility test with HFC-125. Here is the method: as §1
The miscibility of the oil [S2] obtained in Referential Example 2 with HFC-125 (CF3CHF2) was evaluated in the same manner as in Example 1.

Data set [9] is described as follows: Miscibility test with HFC-227ea. The method, then: as §1
The miscibility of the oil [S2] obtained in Referential Example 2 with HFC-227ea (CF3CHFCF3) was evaluated in the same manner as in Example 1.

Data set [10] in a line: Miscibility with polypropylene glycol. The note with it: weight ratio 50/50; polypropylene glycol number average molecular weight 1000.
Data set [11] in a line: Miscibility with ester oil. The note with it: weight ratio 50/50.
Data set [12] can be described thus: Miscibility with fluoroalkanes in general. The source says:
The present inventors have examined the miscibilities of perfluoropolyethers having the various structures indicated below, inclusive of perfluoropolyethers (trade name: Fomblin Y-06, Y-25 and Y-45, manufactured and sold by Nippon Montedison Co., Ltd., Japan) employed in Examples of Japanese Patent Application Laid-Open Specification Nos. 60-96684 and 1-118598, with a fluoroalkane, such as HFC-134a, HFC-134 and HFC-152a. […] Accordingly, it has been confirmed that such perfluoropolyethers are not suitable as a lubricant for use in refrigeration equipment employing a fluoroalkane, such as HFC-134a, HFC-134 and HFC-152a, as a refrigerant. [drawing 1] wherein each of q1, q2, q3, q4, q5 and q6 is a positive integer.
The miscibilities of commercially available perfluoropolyether and 2,2-bis(4-ethoxyphenyl)propane with each of the above various fluoroalkane were evaluated, in substantially the same manner as in Example 1. The results are shown in Table 3 together with data of the kinetic viscosity at 40 °C.

[13] abbreviates: mixing ratio [S2]/[S2]+HFC-134a 5 % by weight.
The mark [14] stands for this setting: mixing ratio [S2]/[S2]+HFC-134a 10 % by weight.
The mark [15] stands for this setting: mixing ratio [S2]/[S2]+HFC-134a 30 % by weight.
The mark [16] stands for this setting: mixing ratio [S2]/[S2]+HFC-134a 50 % by weight.
Setting [17] is: mixing ratio [S2]/[S2]+HFC-134a 80 % by weight.

The results in this text go back to patent publication EP0790293A1, “Lubricant” (Asahi Kasei Kogyo Kabushiki Kaisha, priority 1991, dated 1992).

With `CC(C)(c1ccc(OC(F)(F)C(F)Cl)cc1)c1ccc(OC(F)(F)C(F)Cl)cc1` (centres unmarked) [[S1]], in data set [1], the “lower limit temperature to be miscible with HFC-32” value is -56 °C and the “upper limit temperature to be miscible with HFC-32” value is ≥ 90 °C. For the same molecule, in data set [2], the “Kinetic viscosity (cSt)40°C” value came to 56.8 cSt and the “kinetic viscosity at 100 °C” value was found to be 5.34 cSt. In [3], the “After sealed tube test IR” value was “not changed at all”, the “After sealed tube test hue” value is recorded as “not changed”, the “After sealed tube test metal surface” value is “not changed” and the “After sealed tube test viscosity” value is given as “not changed at all”. Moreover, the volume resistivity in data set [4] is 3.0 x 10^11 Ωcm. Also, in [4] (oil of Example 40 ([S1]) or Example 44 ([S2]) before adsorbent treatment), the “Volume resistivity (Ωcm) before purification” value is reported as 1.0 x 10^11 Ωcm. The “volume resistivity after purification” value in data set [4] (purified with activated carbon (Calgon® CPG)) is given as 2.2 x 10^13 Ωcm. Besides, the insulation breakdown voltage in data set [5] is recorded as ≥ 50 kV/2.5 cm. The “miscibility with mineral oil” value in [6] is on record as “completely miscible”.
As to `CC(C)(c1ccc(OC(F)(F)C(F)F)cc1)c1ccc(OC(F)(F)C(F)F)cc1` [[S2]], in data set [7] (setting [13]), the “Temperature range to be miscible (°C) lower limit temperature” value is -78 or below °C and the “Temperature range to be miscible (°C) upper limit temperature” value is 90 or above °C. For the same molecule, in data set [7] (setting [14]), the “Temperature range to be miscible (°C) lower limit temperature” value was -78 or below °C and the “Temperature range to be miscible (°C) upper limit temperature” value is 90 or above °C. In [7] (setting [15]), the “Temperature range to be miscible (°C) lower limit temperature” value was -78 or below °C and the “Temperature range to be miscible (°C) upper limit temperature” value was 90 or above °C. For the same molecule, in data set [7] (setting [16]), the “Temperature range to be miscible (°C) lower limit temperature” value is -78 or below °C and the “Temperature range to be miscible (°C) upper limit temperature” value is 90 or above °C. Moreover, in data set [7] (setting [17]), the “Temperature range to be miscible (°C) lower limit temperature” value was -78 or below °C and the “Temperature range to be miscible (°C) upper limit temperature” value was 90 or above °C. For the same molecule, in data set [8], the “lower limit temperature to be miscible with HFC-125” value is ≤ -78 °C and the “upper limit temperature to be miscible with HFC-125” value is 90 °C. In [9], the “lower limit temperature to be miscible with HFC-227ea” value is ≤ -78 °C and the “upper limit temperature to be miscible with HFC-227ea” value came out at 90 °C. Moreover, in [1], the “lower limit temperature to be miscible with HFC-32” value is ≤ -78 °C and the “upper limit temperature to be miscible with HFC-32” value was 90 °C. For the same molecule, in [2], the “Kinetic viscosity (cSt)40°C” value worked out at 26.2 cSt and the “kinetic viscosity at 100 °C” value came to 3.40 cSt. Besides, in [3], the “After sealed tube test IR” value is given as “not changed”, the “After sealed tube test hue” value is on record as “not changed”, the “After sealed tube test metal surface” value is given as “not changed” and the “After sealed tube test viscosity” value is “not changed”. Moreover, the volume resistivity in [4] is on record as 5.7 x 10^11 Ωcm. The “miscibility with polypropylene glycol” value in [10] was “completely miscible”. The “miscibility with ester oil” value in data set [11] is “completely miscible”.
Take `Cc1cc(C(C)(C)c2ccc(OC(F)(F)C(F)F)c(C)c2)ccc1OC(F)(F)C(F)F` [[S5]]: in [7], the “Temperature range for being miscible with HFC-134a lower limit temperature (°C)” value is -78 or below °C and the “Temperature range for being miscible with HFC-134a upper limit temperature (°C)” value is 90 or above °C. The “Kinetic viscosity (cSt)40°C” value in data set [2] is 115 cSt. Moreover, in [3], the “After sealed tube test IR” value is recorded as “not changed”, the “After sealed tube test hue” value is given as “not changed”, the “After sealed tube test metal surface” value is recorded as “not changed” and the “After sealed tube test viscosity” value was “not changed”. In addition, the volume resistivity in data set [4] was 2.9 x 10^12 Ωcm.
For `CC(C)(c1ccc(OC(F)F)cc1)c1ccc(OC(F)F)cc1` [[S7]], in data set [7], the “Temperature range for being miscible with HFC-134a lower limit temperature (°C)” value is -78 or below °C and the “Temperature range for being miscible with HFC-134a upper limit temperature (°C)” value was 90 or above °C. Also, the “Kinetic viscosity (cSt)40°C” value in [2] is on record as 4 cSt.
For `CC(C)(c1ccc(OC(F)(F)CF)cc1)c1ccc(OC(F)(F)CF)cc1` [[S9]], in [7], the “Temperature range for being miscible with HFC-134a lower limit temperature (°C)” value was -78 or below °C and the “Temperature range for being miscible with HFC-134a upper limit temperature (°C)” value is 90 or above °C. The “Kinetic viscosity (cSt)40°C” value in [2] came to 50 cSt.
As to `CCOc1ccc(C(C)(C)c2ccc(OCC)cc2)cc1` [[S14], 2,2-bis(4-ethoxyphenyl)propane], the “miscibility with fluoroalkanes, such as HFC-134a” value in [12] was “little miscibility”.
